Like-named read-outs stand apart in the source and are kept apart here.
Legend:
Format in all cases: cell-based
RAW 264.7 γNO(−) cells = assay: Cytokine induction and ELISAs in mouse macrophages (RAW 264.7 γNO(−) cells); details: for EC50: Example II, ELISA, best-fit value; for EC50 / TNF-α and IFN-β production, dose response (in words): supernatant, 5.5 h; for TNF-α and IFN-β production, dose response (in words): wide range of concentrations
Experimental: Mouse macrophages (RAW 264.7 γNO(−) cells) were exposed over a wide range of concentrations to compounds 1-5 and E. coli 055:B5 LPS. After 5.5 hours, the supernatants were harvested and examined for mouse TNF-α and IFN-β using a commercial and in-house developed capture ELISA assay, respectively. Potencies (EC50, concentration producing 50% activity) and efficacies (maximal level of production) were determined by fitting the dose-response curves to a logistic equation using PRISM software. […] It has also been shown that removal of the KDO moieties by mild acidic treatment reduces cellular responses (Demchenko et al., J. Am. Chem. Soc. 2003, 125, 6103-6112).
Having established the EC50 values of TNF-α and IFN-β secretion by compounds 1-5 and E. coli 055:B5 LPS, attention was focused on IL-6, IP-10, RANTES, and IL-1β responses. Thus, the previously harvested supernatants were analyzed for these cytokines using capture ELISA assays (FIG. 4, Table 1). For IL-6, IP-10, and RANTES, a short incubation time of 5.5 hrs was sufficient for detection. To achieve significant IL-1β secretion, the incubation had to be extended to 24 hrs. […] IL-1β is expressed as a pro-protein (pro-IL-1β), which is cleaved by caspase-1 into its active form (IL-1β), which is then secreted. Indeed, analyzing IL-1β of the cell lysates by Western blotting confirmed that it was present as a pro-protein (data not shown). TNF-α is also produced as a pro-protein, which is proteolitically cleaved by tumor necrosis factor-α converting enzyme (TACE) (Skotnicki and Levin, Annu. Rep. Med. Chem. 2003, 38, 153-162; Duffy et al., Thromb. Haemost. 2003, 89, 622-631). […] Furthermore, for each of the synthetic compounds and LPS, EC50 values of secreted TNF-α and intracellular pro-IL-1β were very similar. However, EC50 values for secreted mature IL-1β were larger by as much as 100-fold.
RAW 264.7 γNO(−) cells were plated on the day of the exposure assay as 2×10^5 cells/well in 96-well tissue culture plates (Nunc). Cells were incubated with different stimuli for 5.5 and 24 hours in replicates of five. Culture supernatants were then collected, pooled, and stored frozen (−80° C.) until assayed for cytokine production. After removal of the supernatant, cells were lysed by adding PBS containing Tween 20 (0.01%) and BSA (1%) in the same volume as that of the supernatant and sonicating for 5 min. The cell lysates were pooled and stored frozen (−80° C.) until assayed for cytokine production.
All cytokine ELISAs were performed in 96-well MaxiSorp plates (Nunc). Cytokine DuoSet ELISA Development Kits (R&D Systems) were used for the cytokine quantification of mouse TNF-α, IL-6, IP-10, RANTES, and IL-1β according to the manufacturer's instructions. The absorbance was measured at 450 nm with wavelength correction set to 540 nm using a microplate reader (BMG Labtech). Concentrations of IFN-β in culture supernatants were determined as follows. ELISA MaxiSorp plates were coated with rabbit polyclonal antibody against mouse IFN-β (PBL Biomedical Laboratories). IFN-β in standards and samples was allowed to bind to the immobilized antibody. Rat anti-mouse IFN-β antibody (USBiological) was then added, producing an antibody-antigen-antibody “sandwich”. Next, horseradish peroxidase (HRP) conjugated goat anti-rat IgG (H+L) antibody (Pierce) and a chromogenic substrate for HRP 3,3′,5,5′-tetramethylbenzidine (TMB; Pierce) were added. After the reaction was stopped, the absorbance was measured at 450 nm with wavelength correction set to 540 nm. All cytokine values are presented as the means±SD of triplicate measurements, with each experiment being repeated three times.
Concentration-response data were analyzed using nonlinear least-squares curve fitting in Prism (GraphPad Software, Inc.). […] The Hillslope was set at 1 to be able to compare the EC50 values of the different inducers. […]

human TLR2 = molecular target: T1, human TLR2 (Homo sapiens, UniProt O60603); assay: NF-κB activation in HEK 293T cells stably transfected with human TLR2; details: 103/104 at 0.1, 1 and 10 μg mL−1; Pam3CysSK4 1 μg mL−1; 4 h
T1 construct: host or cells: HEK 293T
T1 sequence (O60603 21-784): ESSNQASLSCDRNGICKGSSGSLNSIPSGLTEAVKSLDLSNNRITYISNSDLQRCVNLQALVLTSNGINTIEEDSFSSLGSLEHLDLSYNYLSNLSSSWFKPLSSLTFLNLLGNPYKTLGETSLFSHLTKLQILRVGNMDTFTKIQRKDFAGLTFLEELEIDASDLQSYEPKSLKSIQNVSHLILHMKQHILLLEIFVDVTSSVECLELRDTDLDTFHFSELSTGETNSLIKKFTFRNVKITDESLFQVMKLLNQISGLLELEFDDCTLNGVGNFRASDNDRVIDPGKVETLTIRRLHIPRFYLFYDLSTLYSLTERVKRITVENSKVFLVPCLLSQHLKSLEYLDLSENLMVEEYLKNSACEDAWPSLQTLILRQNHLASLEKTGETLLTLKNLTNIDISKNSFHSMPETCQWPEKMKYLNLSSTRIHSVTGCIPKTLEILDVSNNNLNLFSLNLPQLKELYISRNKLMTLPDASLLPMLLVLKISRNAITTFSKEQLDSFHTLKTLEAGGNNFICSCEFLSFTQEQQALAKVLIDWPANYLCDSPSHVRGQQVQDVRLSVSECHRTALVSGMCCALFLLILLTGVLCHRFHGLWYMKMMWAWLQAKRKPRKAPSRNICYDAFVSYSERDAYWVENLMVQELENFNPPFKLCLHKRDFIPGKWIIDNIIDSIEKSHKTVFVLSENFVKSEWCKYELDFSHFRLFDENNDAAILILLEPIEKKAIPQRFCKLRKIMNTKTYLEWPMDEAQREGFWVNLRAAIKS
Experimental: (§1) Induction of NF-κB activation was determined in triplicate cultures of HEK 293T cells stably transfected with human or mouse (a) TLR4/MD2/CD14 and (b) TLR2 and transiently transfected with pELAM-Luc and pRL-TK plasmids. Forty-four h post-transfection, cells were treated with (B) E. coli LPS (10 ng mL^−1), (C) Pam3CysSK4 (1 μg mL^−1), (D, E and F) 103 (0.1, 1 and 10 μg mL^−1, respectively), (G, H and I) 104 (0.1, 1 and 10 μg mL^−1, respectively) or (A) were left untreated (control). Forty-eight h post-transfection, NF-κB activation was determined by firefly luciferase activity relative to Renilla luciferase activity. n.a. indicates not analyzed.
(§2) To examine the ability of the synthetic compounds to induce activation of NF-κB, HEK 293T cells were employed that were stably transfected with various immune receptors and transiently transfected with a plasmid containing the reporter gene pELAM-Luc (NF-κB-dependent firefly luciferase reporter vector) and a plasmid containing the control gene pRL-TK (Renilla luciferase control reporter vector) (FIG. 11). […] Although compound 104 is a weak activator of mouse TLR4, it could not induce the secretion of cytokines.
(§3) The day before transfection, HEK 293T wild type cells and HEK 293T cells stably transfected with human and murine TLR4/MD2/CD14 and human and murine TLR2 were plated in 96-well tissue culture plates (16,000 cells/well). The next day, cells were transiently transfected using PolyFect Transfection Reagent (Qiagen) with expression plasmids pELAM-Luc (NF-κB-dependent firefly luciferase reporter plasmid, 50 ng/well) (Chow et al., J. Biol. Chem., 1999, 274, 10689-10692) and pRL-TK (Renilla luciferase control reporter vector, 1 ng/well; Promega) as an internal control to normalize experimental variations. […] The luciferase activity was measured using the Dual-Luciferase Reporter Assay System (Promega) according to the manufacturer's instructions and a combination luminometer/fluorometer microplate reader (BMG Labtech). […]

mouse TLR2 = molecular target: T2, mouse TLR2 (Mus musculus, UniProt Q9QUN7); assay: NF-κB activation in HEK 293T cells stably transfected with mouse TLR2; details: 103/104 at 0.1, 1 and 10 μg mL−1; Pam3CysSK4 1 μg mL−1; 4 h
T2 construct: host or cells: HEK 293T
T2 sequence (Q9QUN7 25-784): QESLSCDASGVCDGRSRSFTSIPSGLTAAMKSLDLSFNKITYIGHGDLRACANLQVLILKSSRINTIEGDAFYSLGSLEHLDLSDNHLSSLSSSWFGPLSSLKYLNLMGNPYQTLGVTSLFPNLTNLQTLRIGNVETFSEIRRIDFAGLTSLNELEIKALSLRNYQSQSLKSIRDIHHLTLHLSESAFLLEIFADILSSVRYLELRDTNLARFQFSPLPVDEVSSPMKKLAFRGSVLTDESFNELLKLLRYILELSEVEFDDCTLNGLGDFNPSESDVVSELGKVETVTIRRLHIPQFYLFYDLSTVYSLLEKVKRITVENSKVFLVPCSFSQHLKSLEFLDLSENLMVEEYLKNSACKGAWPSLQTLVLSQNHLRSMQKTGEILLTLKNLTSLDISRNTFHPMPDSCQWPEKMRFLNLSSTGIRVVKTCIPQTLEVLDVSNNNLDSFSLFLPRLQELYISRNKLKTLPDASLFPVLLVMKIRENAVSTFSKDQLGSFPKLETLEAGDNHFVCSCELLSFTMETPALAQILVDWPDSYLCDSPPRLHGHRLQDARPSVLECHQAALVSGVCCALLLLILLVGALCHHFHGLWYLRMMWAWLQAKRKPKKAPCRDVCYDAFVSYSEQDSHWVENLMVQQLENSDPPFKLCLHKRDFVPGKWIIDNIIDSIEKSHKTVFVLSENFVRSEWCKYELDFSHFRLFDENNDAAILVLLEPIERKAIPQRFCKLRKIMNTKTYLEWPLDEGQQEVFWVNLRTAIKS
Experimental: as §1, §2, §3

[1] = at the highest concentration tested

Molecule	EC50 (RAW 264.7 γNO(−) cells; read-out: EC50 IFN-β)	EC50 (RAW 264.7 γNO(−) cells; read-out: EC50 TNF-α)	TNF-α and IFN-β production, dose response (in words) (RAW 264.7 γNO(−) cells)	other results
3-O—[(R)-3-Hydroxy-dodecanoyl]-2-deoxy-2-[(R)-3-dodecanoyloxy-tetradecanoylamino]-(R)-D-glucopyranosyl-(1→6)-2-[(R)-3-hydroxy-dodecanoylamino]-3-O—[(R)-3-dodecanoyloxy-dodecanoyl]-2-deoxy-α-D-glucopyranoside 1,4′-bisphosphate [lipid A 51]	4 nM	1.5 nM		
CCCCCCCCCCCCCCCC(=O)O[C@H](CCCCCCCCCCC)CC(=O)N[C@H]1[C@@H](OP(=O)(O)O)O[C@H](CO[C@@H]2O[C@H](CO)[C@@H](OP(=O)(O)O)[C@H](OC(=O)C[C@@H](CCCCCCCCCCC)OC(=O)CCCCCCCCCCCCC)[C@H]2NC(=O)C[C@@H](CCCCCCCCCCC)OC(=O)CCCCCCCCCCC)[C@@H](O)[C@@H]1OC(=O)C[C@H](O)CCCCCCCCCCC [Lipid A 3, 6-O-{2-Deoxy-2-[(R)-3-dodecanoyloxy-tetradecanoylamino]-3-O—[(R)-3-tetradecanoyloxy-tetradecanoyl]-β-D-glucopyranosyl}-2-deoxy-2-[(R)-3-hexadecanoyl-tetradecanoylamino]-3-O—[(R)-3-hydroxy-tetradecanoyl]-α-D-glucopyranose 1,4′-bisphosphate]			only a partial response at the highest concentration tested	formation of IL-6, RANTES, and IL-1β (RAW 264.7 γNO(−) cells; [1]): no formation; production of TNF-α, IFN-β, and IP-10 (RAW 264.7 γNO(−) cells; [1]): induced the production
CCCCCCCCCCCCCCCC(=O)O[C@H](CCCCCCCCCCC)CC(=O)N[C@@H]1[C@@H](OC(=O)C[C@H](O)CCCCCCCCC)[C@H](O)[C@@H](CO[C@@H]2O[C@H](CO)[C@@H](O)[C@H](OC(=O)C[C@@H](CCCCCCCCC)OC(=O)CCCCCCCCCCC)[C@H]2NC(=O)C[C@@H](CCCCCCCCCCC)OC(=O)CCCCCCCCCCC)O[C@@H]1O [Lipid A 5, 6-O-{2-Deoxy-3-O—[(R)-3-dodecanoyloxy-dodecanoyl]-2-[(R)-3-dodecanoyloxy-tetradecanoylamino]-β-D-glucopyranosyl}-2-deoxy-2-[(R)-3-hexadecanoyloxy-tetredecanoylamino]-3-O—[(R)-3-hydroxy-dodecanoyl]-α-D-glucopyranose]			inactive	
(3-Deoxy-α-D-manno-oct-2-ulopyranosyl)onate-(2->6)-3-O—[(R)-3-hydroxy-dodecanoyl]-2-deoxy-2-[(R)-3-dodecanoyloxy-tetradecanoyl]-(R)-D-glucopyranosyl-(1→6)-3-O—[(R)-3-hydroxy-dodecanoyl]-2-deoxy-2-[(R)-3-dodecanoyloxy-tetradecanoyl]-α-D-glucopyranose 1,4′-biphosphate [lipid A 53]	0.2 nM	0.092 nM		
Pam3CysSK4 [reference compound]				NF-κB activation, human TLR2 (human TLR2): able to activate; NF-κB activation, mouse TLR2 (mouse TLR2): able to activate
